Source: US20120015090A1, “READILY WATER-SOLUBLE MYRICITRIN COMPOSITION” (SAN-EI GEN F.F.I., INC., priority 2009, published 2012)

Columns and labels:
[1] = Fading suppressing effect, UV Fade Meter irradiation (Experiment Example 5); settings: pH 3.1, final MY 0.003%, γ-CD 0.01%, EMIQ […]
Procedure: (§1) Specifically, a colorant-containing acidic drink of the formulation below was prepared. Then, a 3% MY preparation (product name: SanMelin**Y-AF*) and a MY/γ-CD inclusion product (MY: γ-CD=1:1.2) (containing 3% myricitrin) prepared in Example 2 were added to the drink to a final MY concentration of 0.003% or to a final γ-CD (Wacker Chemical) concentration of 0.01%.
(§2) The drinks were irradiated with a UV Fade Meter (UV Long-Life Fade Meter FAL-3, Suga Test Instruments Co., Ltd.) or a fluorescent light (BIOTRON LH 300, NK System) for the durations presented in Tables 6 and 7. Absorbance was measured before and after the irradiation, and the percentage of remaining color (%) after the irradiation was calculated. Further, as a control test, a colorant-containing acidic drink was irradiated with the UV Fade Meter or fluorescent light as above without adding anything (no addition), and the percentage of remaining color (%) after the irradiation was calculated.

[2] = Flavor deterioration suppressing effect, sensory evaluation of drinks after light or heat stress test (Experiment Example 6); parameters: key: 1 = no-addition blank drink, 5 = drink before the test; settings: added 0.1% (γ-CD 0.01%)
Procedure: Various drinks mixed with the MY or MY composition were subjected to a light or heat stress test (accelerated test) to evaluate the flavor deterioration suppressing effect of the MY or MY composition.
Specifically, eight drinks were prepared in the formulations 1 to 8 below. Then, a 3% MY preparation (product name: SanMelin**Y-AF*), a MY/γ-CD inclusion product preparation (MY: γ-CD=1:1.2) (containing 3% MY) prepared in Example 2, a MY/γ-CD inclusion product preparation (MY: γ-CD=1:1.2) (containing 6% MY) prepared in Example 3, and γ-CD (Wacker Chemical) were added thereto in the final concentrations shown in FIG. 10.
The drinks prepared as above were tested under the severity conditions presented in Table 10, and changes in drink flavor after the test were examined by six panelists in a sensory evaluation. Evaluations were made according to the following criteria on a scale of 1 (a drink with no addition (blank)) to 5 (each drink before the test).
Table 10 presents mean values of the scored points evaluated by the six panelists.

[3] = Fading suppressing effect, fluorescent light irradiation (Experiment Example 5); settings: pH 3.1, final MY 0.003%, γ-CD 0.01%, EMIQ […]
Procedure: as §1, §2

Q: Which “percentage of remaining color (%)” value ([1]; Cochineal colorant 0.05%, UV Fade Meter 6 H) does the source give for `OC[C@H]1O[C@@H]2O[C@H]3[C@H](O)[C@@H](O)[C@@H](O[C@H]4[C@H](O)[C@@H](O)[C@@H](O[C@H]5[C@H](O)[C@@H](O)[C@@H](O[C@H]6[C@H](O)[C@@H](O)[C@@H](O[C@H]7[C@H](O)[C@@H](O)[C@@H](O[C@H]8[C@H](O)[C@@H](O)[C@@H](O[C@H]9[C@H](O)[C@@H](O)[C@@H](O[C@H]1[C@H](O)[C@H]2O)O[C@@H]9CO)O[C@@H]8CO)O[C@@H]7CO)O[C@@H]6CO)O[C@@H]5CO)O[C@@H]4CO)O[C@@H]3CO` [γ-CD, γ-cyclodextrin] here?
A: 64.3%

Q: What about the “percentage of remaining color (%)” value ([1]; Elderberry colorant 0.05%, UV Fade Meter 2 H) of the same molecule?
A: 68.5%

Q: What about the “percentage of remaining color (%)” value ([1]; Gardenia blue colorant 0.05%, UV Fade Meter 19 H) of the same molecule?
A: 68.6%

Q: And the “percentage of remaining color (%)” value ([1]; Grape juice colorant 0.1%, UV Fade Meter 2 H)?
A: 75.0%

Q: What about the “percentage of remaining color (%)” value ([1]; Monascus colorant, UV Fade Meter 3 H) of the same molecule?
A: 30.2%

Q: What about the “percentage of remaining color (%)” value ([1]; Paprika colorant 0.05%, UV Fade Meter 3 H) of the same molecule?
A: 50.3%

Q: What about the “percentage of remaining color (%)” value ([1]; Purple corn colorant 0.05%, UV Fade Meter 4 H) of the same molecule?
A: 72.8%

Q: What about the “percentage of remaining color (%)” value ([1]; Purple sweet potato colorant 0.05%, UV Fade Meter 7 H) of the same molecule?
A: 46.5%

Q: What about the “percentage of remaining color (%)” value ([1]; Red cabbage colorant 0.05%, UV Fade Meter 10 H) of the same molecule?
A: 53.9%

Q: What about the “percentage of remaining color (%)” value ([1]; Safflower yellow colorant 0.05%, UV Fade Meter 4 H) of the same molecule?
A: 48.6%

Q: What about the “percentage of remaining color (%)” value ([1]; β-carotene 0.05%, UV Fade Meter 17 H) of the same molecule?
A: 68.5%

Q: What about the “flavor change score, mean of six panelists” value (“flavor change score, mean” below) ([2]; Coffee, Fluorescent light (20000 lx, 16 hr, 15° C.), scale 1 to 5) of the same molecule?
A: 2.4

Q: And the “flavor change score, mean” value ([2]; Grape drink, Fluorescent light (20000 lx, 15 hr, 15° C.), scale 1 (blank) to 5 (before test))?
A: 1.6

Q: What about the “flavor change score, mean” value ([2]; Grapefruit drink (20% fruit juice), Fade Meter ([…]), scale 1 to 5) of the same molecule?
A: 2.2

Q: And the “flavor change score, mean” value ([2]; Grapefruit drink (20% fruit juice), Fluorescent light (20000 lx, 21 hr, 10° C.), scale 1 to 5)?
A: 2.0

Q: What about the “flavor change score, mean” value ([2]; Grapefruit drink (20% fruit juice), Heat (55° C., 64 hr), scale 1 to 5) of the same molecule?
A: 2.8

Q: And the “flavor change score, mean” value ([2]; Grapefruit drink (100% fruit juice), Fluorescent light (20000 lx, 18 hr, 15° C.), scale 1 to 5)?
A: 2.1

Q: What about the “flavor change score, mean” value ([2]; Lemon drink, Fluorescent light (20000 lx, 21 hr, 10° C.), scale 1 to 5) of the same molecule?
A: 2.2

Q: What about the “flavor change score, mean” value ([2]; Milk tea, Fluorescent light (20000 lx, 18 hr, 15° C.), scale 1 to 5) of the same molecule?
A: 2.3

Q: What about the “flavor change score, mean” value ([2]; Orange drink (20% fruit juice), Fluorescent light (20000 lx, 18 hr, 15° C.), scale 1 to 5) of the same molecule?
A: 2.3

Q: What about the “flavor change score, mean” value ([2]; Sour milk beverage, Fluorescent light (20000 lx, 18 hr, 15° C.), scale 1 to 5) of the same molecule?
A: 2.7

Q: And the “percentage of remaining color (%)” value ([3]; Cochineal colorant 0.05%, fluorescent light 1 D)?
A: 64.2%

Q: What about the “percentage of remaining color (%)” value ([3]; Elderberry colorant 0.05%, fluorescent light 6 D) of the same molecule?
A: 63.8%

Q: What about the “percentage of remaining color (%)” value ([3]; Gardenia blue colorant 0.05%, fluorescent light (time not given)) of the same molecule?
A: 58.4%

Q: What about the “percentage of remaining color (%)” value ([3]; Monascus colorant, fluorescent light 4 D) of the same molecule?
A: 38.7%

Q: And the “percentage of remaining color (%)” value ([3]; Paprika colorant 0.05%, fluorescent light 6 D)?
A: 71.2%

Q: And the “percentage of remaining color (%)” value ([3]; Purple corn colorant 0.05%, fluorescent light 2 D)?
A: 65.5%

Q: And the “percentage of remaining color (%)” value ([3]; Purple sweet potato colorant 0.05%, fluorescent light 6 D)?
A: 80.4%

Q: What about the “percentage of remaining color (%)” value ([3]; Red cabbage colorant 0.05%, fluorescent light 4 D) of the same molecule?
A: 62.8%

Q: What about the “percentage of remaining color (%)” value ([3]; Safflower yellow colorant 0.05%, fluorescent light 6 D) of the same molecule?
A: 68.1%

Q: What about the “percentage of remaining color (%)” value ([3]; β-carotene 0.05%, fluorescent light 1 D) of the same molecule?
A: 67.4%
